Results published in PubChem BioAssay AID328 (DTP/NCI, 2004).
“And” between values parts separate entries of the source, which are not always exact repeats. Equal entries are not always repeated. Toxic doses and inconclusive results are not listed. The calls were made as follows: active = survival T/C of 150% or more; inactive = T/C below 125% in these data.

Test system: BDF1 mice, P388 leukemia ip, median survival T/C
Assay: NCI In Vivo Anticancer Drug Screen. Data for tumor model P388 Leukemia (intraperitoneal) in B6D2F1 (BDF1) mice
Settings: endpoint: median survival time, higher = longer survival
In short: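 Steps: implant the tumour, treat one group with compound and another with vehicle, record survival, then divide treated by control.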

[1] = dose: 12.0 mg/kg/injection, schedule: Q04DX003 (ip), vehicle: Klucel (hydroxypropylcellulose) (HPC)
[2] = dose: 25.0 mg/kg/injection, schedule: Q01DX009 (ip), vehicle: Klucel (hydroxypropylcellulose) (HPC)
[3] = dose: 100.0 mg/kg/injection, schedule: Q04DX003 (ip), vehicle: Klucel (hydroxypropylcellulose) (HPC)
[4] = dose: 12.5 mg/kg/injection, schedule: Q01DX009 (ip), vehicle: saline
[5] = dose: 50.0 mg/kg/injection, schedule: Q01DX009 (ip), vehicle: saline
[6] = dose: 50.0 mg/kg/injection, schedule: Q01DX009 (ip), vehicle: Klucel (hydroxypropylcellulose) (HPC)
[7] = dose: 100.0 mg/kg/injection, schedule: Q01DX009 (ip), vehicle: Klucel (hydroxypropylcellulose) (HPC)
[8] = dose: 50.0 mg/kg/injection, schedule: Q01DX009 (ip), vehicle: saline with Tween-80
[9] = dose: 100.0 mg/kg/injection, schedule: Q01DX009 (ip), vehicle: saline with Tween-80
[10] = dose: 200.0 mg/kg/injection, schedule: Q01DX009 (ip), vehicle: saline with Tween-80
[11] = dose: 50.0 mg/kg/injection, schedule: Q04DX003 (ip), vehicle: Klucel (hydroxypropylcellulose) (HPC)
[12] = dose: 100.0 mg/kg/injection, schedule: Q01DX009 (ip), vehicle: saline
[13] = dose: 200.0 mg/kg/injection, schedule: Q01DX009 (ip), vehicle: saline
[14] = dose: 400.0 mg/kg/injection, schedule: Q01DX009 (ip), vehicle: saline
[15] = dose: 200.0 mg/kg/injection, schedule: Q04DX003 (ip), vehicle: Klucel (hydroxypropylcellulose) (HPC)
[16] = dose: 400.0 mg/kg/injection, schedule: Q04DX003 (ip), vehicle: Klucel (hydroxypropylcellulose) (HPC)
[17] = dose: 50.0 mg/kg/injection, schedule: Q04DX003 (ip), vehicle: saline with Tween-80
[18] = dose: 100.0 mg/kg/injection, schedule: Q04DX003 (ip), vehicle: saline with Tween-80
[19] = dose: 200.0 mg/kg/injection, schedule: Q04DX003 (ip), vehicle: saline with Tween-80
[20] = dose: 400.0 mg/kg/injection, schedule: Q04DX003 (ip), vehicle: saline with Tween-80

Measured: T/C

N=C(N)c1ccc(C(=N)N)cc1
inactive: dose: 25.0 mg/kg/injection, schedule: Q01DX009 (ip), vehicle: water 100 % of control | dose: 50.0 mg/kg/injection, schedule: Q01DX009 (ip), vehicle: water 94 % of control | dose: 50.0 mg/kg/injection, schedule: Q04DX003 (ip), vehicle: water 95 % of control | dose: 100.0 mg/kg/injection, schedule: Q01DX009 (ip), vehicle: water 100 % of control | dose: 100.0 mg/kg/injection, schedule: Q04DX003 (ip), vehicle: water 100 % of control | dose: 200.0 mg/kg/injection, schedule: Q04DX003 (ip), vehicle: water 100 % of control

O=[N+]([O-])c1cc(S(=O)(=O)OCC2CO2)ccc1Cl (configuration not stated)
inactive: dose: 6.25 mg/kg/injection, schedule: Q01DX009 (ip), vehicle: Klucel (hydroxypropylcellulose) (HPC) 100 % of control | [1] 95 % of control | dose: 12.5 mg/kg/injection, schedule: Q01DX009 (ip), vehicle: Klucel (hydroxypropylcellulose) (HPC) 105 % of control | [2] 120 % of control | [3] 108 % of control

CCCCCCCCCCCC[N+]1([O-])CCCC1
inactive: [4] 100 % of control | dose: 25.0 mg/kg/injection, schedule: Q01DX009 (ip), vehicle: saline 93 % of control | [5] 87 % of control

O=C(O)CCCCc1ccc(CCCCC(=O)O)cc1
inactive: [2] 104 % of control | [6] 104 % of control | [7] 90 % of control | dose: 150.0 mg/kg/injection, schedule: Q04DX003 (ip), vehicle: Klucel (hydroxypropylcellulose) (HPC) 120 % of control

CC12COC(=O)CC1CCC1C2CCC2(C)C1CCC2(C)O (configuration not stated)
inactive: [8] 90 % of control | [9] 95 % of control | [10] 100 % of control

Cc1ccc([I+]c2ccc(C)cc2C)c(C)c1
inactive: dose: 0.19 mg/kg/injection, schedule: Q01DX009 (ip), vehicle: Klucel (hydroxypropylcellulose) (HPC) 90 % of control | dose: 0.39 mg/kg/injection, schedule: Q01DX009 (ip), vehicle: Klucel (hydroxypropylcellulose) (HPC) 90 % of control | dose: 0.78 mg/kg/injection, schedule: Q01DX009 (ip), vehicle: Klucel (hydroxypropylcellulose) (HPC) 100 % of control | dose: 1.17 mg/kg/injection, schedule: Q04DX003 (ip), vehicle: Klucel (hydroxypropylcellulose) (HPC) 104 % of control | dose: 1.5 mg/kg/injection, schedule: Q01DX009 (ip), vehicle: Klucel (hydroxypropylcellulose) (HPC) 90 % of control | dose: 1.56 mg/kg/injection, schedule: Q01DX009 (ip), vehicle: Klucel (hydroxypropylcellulose) (HPC) 87 % of control | dose: 2.34 mg/kg/injection, schedule: Q04DX003 (ip), vehicle: Klucel (hydroxypropylcellulose) (HPC) 108 % of control | dose: 3.0 mg/kg/injection, schedule: Q01DX009 (ip), vehicle: Klucel (hydroxypropylcellulose) (HPC) 100 % of control and 103 % of control | dose: 4.68 mg/kg/injection, schedule: Q04DX003 (ip), vehicle: Klucel (hydroxypropylcellulose) (HPC) 113 % of control | dose: 6.0 mg/kg/injection, schedule: Q01DX009 (ip), vehicle: Klucel (hydroxypropylcellulose) (HPC) 103 % of control | dose: 6.6 mg/kg/injection, schedule: Q04DX003 (ip), vehicle: Klucel (hydroxypropylcellulose) (HPC) 100 % of control | dose: 10.0 mg/kg/injection, schedule: Q04DX003 (ip), vehicle: Klucel (hydroxypropylcellulose) (HPC) 113 % of control | [1] 100 % of control | dose: 12.5 mg/kg/injection, schedule: Q04DX003 (ip), vehicle: Klucel (hydroxypropylcellulose) (HPC) 103 % of control | dose: 25.0 mg/kg/injection, schedule: Q04DX003 (ip), vehicle: Klucel (hydroxypropylcellulose) (HPC) 100 % of control | [11] 91 % of control

Cc1ccc(-n2nnc3ccccc3c2=O)cc1C
inactive: [12] 109 % of control | dose: 100.0 mg/kg/injection, schedule: Q04DX003 (ip), vehicle: saline 100 % of control | [13] 90 % of control | dose: 200.0 mg/kg/injection, schedule: Q04DX003 (ip), vehicle: saline 104 % of control | [14] 113 % of control | dose: 400.0 mg/kg/injection, schedule: Q04DX003 (ip), vehicle: saline 100 % of control

Cc1ccc(S(=O)(=O)N=S2CCCC2)cc1
inactive: [3] 100 % of control | [15] 95 % of control | [16] 100 % of control

CC1=[N+](C)C(C)(C)CC(C)O1 (configuration not stated)
inactive: dose: 4.5 mg/kg/injection, schedule: Q01DX009 (ip), vehicle: saline 100 % of control | dose: 6.25 mg/kg/injection, schedule: Q01DX009 (ip), vehicle: saline 100 % of control | dose: 7.0 mg/kg/injection, schedule: Q01DX009 (ip), vehicle: saline 108 % of control | dose: 11.0 mg/kg/injection, schedule: Q01DX009 (ip), vehicle: saline 100 % of control | [4] 95 % of control | dose: 16.5 mg/kg/injection, schedule: Q01DX009 (ip), vehicle: saline 103 % of control and 104 % of control | dose: 37.5 mg/kg/injection, schedule: Q01DX009 (ip), vehicle: saline 92 % of control and 109 % of control | [13] 90 % of control

CCSc1ncnc2nc[nH]c12
inactive: [3] 104 % of control | [15] 109 % of control

Oc1ccccc1C1N=NC2=C(CCCC2)N1O (configuration not stated)
inactive: [6] 99 % of control | [7] 93 % of control

Cc1nnc2ncnn2c1N(C)c1ccccc1
inactive: [17] 100 % of control | [18] 95 % of control | [19] 100 % of control

O=C(O)CNC(CSCc1ccccc1)CSCc1ccccc1
inactive: dose: 25.0 mg/kg/injection, schedule: Q04DX003 (ip), vehicle: saline with Tween-80 101 % of control | [5] 93 % of control | [17] 106 % of control | [12] 112 % of control | [18] 98 % of control | [13] 111 % of control | [19] 97 % of control | [14] 116 % of control | [20] 97 % of control

CCCCN(CCCC)CCC(O)c1cc2ccc(C(F)(F)F)cc2c2cc(C(F)(F)F)ccc12 (configuration not stated)
inactive: [8] 94 % of control | [9] 90 % of control | [10] 110 % of control

CC(c1ccccc1)C1N(c2ccccc2)CCN1c1ccccc1 (configuration not stated)
inactive: [11] 107 % of control | [3] 96 % of control | [15] 107 % of control | [16] 111 % of control

Cc1cc(NS(=O)(=O)c2ccccc2)ccc1NS(=O)(=O)c1ccccc1
inactive: dose: 75.0 mg/kg/injection, schedule: Q01DX009 (ip), vehicle: Klucel (hydroxypropylcellulose) (HPC) 87 % of control | [3] 104 % of control | dose: 150.0 mg/kg/injection, schedule: Q01DX009 (ip), vehicle: Klucel (hydroxypropylcellulose) (HPC) 100 % of control | [15] 100 % of control | dose: 300.0 mg/kg/injection, schedule: Q01DX009 (ip), vehicle: Klucel (hydroxypropylcellulose) (HPC) 87 % of control | [16] 95 % of control

Nc1c(C(=O)O)cccc1C(=O)O
inactive: [9] 104 % of control | [18] 100 % of control | [10] 109 % of control | [19] 100 % of control | dose: 400.0 mg/kg/injection, schedule: Q01DX009 (ip), vehicle: saline with Tween-80 113 % of control | [20] 95 % of control

COc1ccc(CNCCc2ccc(O)c(OC)c2)cc1O
inactive: [8] 100 % of control | [9] 102 % of control | [10] 107 % of control

COC(=O)C1CN(c2ccccc2)N=C1C(C)=O (configuration not stated)
inactive: [18] 89 % of control | [19] 86 % of control

CC(=O)C(=O)N1Cc2cc3ccccc3nc2C1
inactive: dose: 50.0 mg/kg/injection, schedule: Q01DX001 (ip), vehicle: saline sonified 100 % of control | dose: 100.0 mg/kg/injection, schedule: Q01DX001 (ip), vehicle: saline sonified 100 % of control | dose: 200.0 mg/kg/injection, schedule: Q01DX001 (ip), vehicle: saline sonified 100 % of control
